According to patent US20250353936A1, “CHEMICALLY MODIFIED HEPARIN” (IHP Therapeutics Inc., priority 2022, published 2025):

What was measured:
[1] = tested on: BxPC3-luc, clone 1F11 cells; assay: Gemcitabine sparing pancreatic cancer model, subcutaneous BxPC3-luc tumors; type: in vivo, female NSG mice; settings: Compound C 10 mg/kg BID s.c., gemcitabine 25 mg/kg QW i.p., day 7 through day 70; FIG. 4
Description: Methods: Pancreatic cancer tumors were generated by subcutaneous injection of 100 μL of BxPC3-luc, clone 1F11 cells (1×10^6) in matrigel into the right flank of female NSG mice. Tumors were allowed to grow for 7 days prior to initiating treatment. At day 7 post-implant, mice were randomized into treatment groups (n=5/group) and treatment was initiated per dose route and regimen as described below:
Gemcitabine (Gem) at a low sensitizing dose was administered 25 mg/kg QW by intraperitoneal route. Compound C was administered 10 mg/kg BID by subcutaneous route. Treatments were administered from day 7 through day 70.
Body weight and tumor volume by caliper was measured weekly. At day 70 imaging was performed by administering 150 mg/kg luciferin and measuring whole body […] by IVIS imaging system. Tumors and organs were then harvested and imaged ex vivo.

P-selectin = assay: P-selectin-mediated HL-60 cell binding to immobilized P-selectin/Fc chimera; type: cell-based; settings: HL-60 cells, best-fit values
Description: 96 well plates were coated with 10 μg/mL Protein A overnight, then blocked with 2% FBS for 1 hour. 2 μg/mL P-selectin/Fc chimera was bound to the Protein A for 3 hours at 4° C. HL-60 cells (2e5 cells/well, CMFDA labeled) were then layered onto the P-selectin and allowed to bind for 1 hour at room temperature. Wells were treated concurrently with test samples to determine inhibitory binding activity. After 1 hour, unbound cells were washed and bound cells lysed in a 1% Triton-X solution and read on a Fluorimeter at 480/520 nm.

| Compound | tumor growth inhibition (tumor volume by caliper) [1] | P-sel IC50 (P-selectin) |
| --- | --- | --- |
| Nc1ccn([C@@H]2O[C@H](CO)[C@@H](O)C2(F)F)c(=O)n1 [Gemcitabine] | no effect on tumor growth |  |
| enoxaparin |  | 64.72 µg/mL |
